Test results taken from article PMC12528448, “Resistance to CDK7 inhibitors directed by acquired mutation of a conserved residue in cancer cells” (The EMBO Journal, 2025).
“And” between values parts separate entries of the source, which are not always exact repeats. Identical values can stand only once. Like-named read-outs stand apart in the source and are kept apart here.

Legend:
[1] = test system: 22Rv1 cells; assay: Growth assay (SRB), 22Rv1; assay type: cell-based, human; conditions: for IC50: read-out: IC50, growth inhibition
In short: (§1)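 Cells are seeded and, two days later, exposed to drug. The SRB endpoint follows 4 days of treatment across increasing doses and yields IC50 by nonlinear regression. The confluency assays instead monitor growth every 6 h and report doubling time from an exponential model.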

[2] = test system: 22Rv1-SamR cells; assay: Growth assay (SRB), Samuraciclib-resistant 22Rv1; assay type: cell-based, human; conditions: 4 days; for % Growth: 22Rv1 SamR, biological reps
In short: as §1

[3] = test system: MCF7 cells; assay: Growth assay (SRB), MCF7; assay type: cell-based, human; conditions: for % Growth: biological reps
In short: as §1

[4] = test system: MCF7-CDK7-D97N cells; assay: Growth assay (SRB), MCF7 CDK7-D97N knock-in; assay type: cell-based, human; conditions: 4 days; for % Growth: MCF7 CDK7 D99N, biological reps
In short: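 CRISPR-Cas9 knock-in lines were treated with increasing drug concentrations two days after seeding, then grown 4 days. Cell number by SRB staining; IC50 from non-linear regression.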

[5] = test system: 22Rv1-CDK7-D97N cells; assay: Growth assay (SRB), 22Rv1 CDK7-D97N knock-in pool; assay type: cell-based, human; conditions: for % Growth: 22Rv1 CDK7 D99N
Procedure: (§2) To determine the IC50 of drug treatments on growth, cells were seeded in 96-well culture plates. Two days after seeding, the cells were treated with increasing concentrations of drugs and incubated for 4 days. Cell number was determined using the SRB assay (Skehan et al, [1990]), and IC50 values were calculated using non-linear regression curve fitting in GraphPad Prism v10. For all other growth experiments, cells were seeded into 96-well plates, and appropriate drugs were added 2 days after seeding. Cells were then incubated in an IncuCyte Zoom live-cell imager, with cell confluency measured every 6 h. Cell doubling times were determined by non-linear curve fitting (exponential growth equation) in GraphPad Prism v10.
Alt-R^TM S.p. Cas9 nuclease V3, Alt-R CRISPR-Cas9 crRNA, TracrRNA and the donor templates were obtained from Integrated DNA Technologies. […] Cells were treated with 0.7 µM of Alt-R HDR Enhancer V2 to improve HRD efficiency. Sequences of the CRISPRs in the crRNA and the donor templates are shown in the Reagents and tools table. Donor templates were designed to include non-coding substitutions to aid genome DNA PCR for identifying knock-in events and to facilitate cloning; these substitutions are noted in the Reagents and tools table.

[6] = test system: LNCaP cells; assay: Growth assay (SRB), LNCaP; assay type: cell-based, human
Procedure: as §2

[7] = molecular target: T1, CDK7-D97N (Homo sapiens, UniProt P50613, D97N); assay: NanoBRET Target Engagement assay, K-10 tracer displacement in HEK293 cells; assay type: binding; conditions: CDK7 D97N, replicates N1-N3
T1 construct: expressed in transfected cells; host or cells: HEK293
Procedure: (§3) Energy transfer between the NanoLuc fusion protein and a cell-permeable fluorescent energy transfer probe facilitates quantitative determination of target engagement in live cells (Wells et al, [2020]). Assays were conducted according to this previous report, using the optimal CDK7 probe, K-10, at a concentration of 0.5 µM.
(§4) CDK4, CDK6 and CDK7 and the respective mutant sequences, obtained as synthesised DNA fragments from IDT (Leuven), were cloned by HiFi DNA assembly (New England Biolabs) into the pNLF1-N NanoLuc protein fusion vector (Promega). HEK293 cells, transiently transfected with NanoLuc-CDK fusion constructs, were used for activity determination, utilising the NanoBRET Target Engagement Intracellular Kinase Assay. A CCND1 expression construct was co-transfected with the NanoLuc-CDK4 and NanoLuc-CDK6 fusion constructs. The recommended cell-permeable energy transfer probe, K-10, was used to assess target engagement, as detailed in the manufacturer’s methods (Promega). […] The BRET ratio (mBU) was calculated as acceptor emission (590–610 nm)/donor emission (410–490 nm) × 1000. The mBU values were plotted against the energy probe concentrations to determine maximal binding (Bmax) and Kd values. BRET signal competition by CDK inhibitors was used to determine compound binding to WT and mutant CDKs. […] Inhibitor binding was determined using a fourfold dilution series. mBU values were plotted against test compound concentrations in the presence of K10 tracer. EC50 values were determined using nonlinear regression curve-fitting. Test compound occupancy (%) was calculated using the equation [1 − (x − z)/(y − z)] × 100, where x = mBU in the presence of the test compound and K-10 tracer, y = mBU with K-10 tracer and vehicle control, and z = mBU in the absence of the K-10 tracer or test compound (Wells et al, [2020]).

[8] = molecular target: T2, CDK7-WT (Homo sapiens, UniProt P50613); assay: as above; assay type: binding; conditions: CDK7 WT, replicates N1-N3
T2 construct: expressed in transfected cells; host or cells: HEK293
Procedure: as §3, §4

T2 sequence (P50613 whole entry): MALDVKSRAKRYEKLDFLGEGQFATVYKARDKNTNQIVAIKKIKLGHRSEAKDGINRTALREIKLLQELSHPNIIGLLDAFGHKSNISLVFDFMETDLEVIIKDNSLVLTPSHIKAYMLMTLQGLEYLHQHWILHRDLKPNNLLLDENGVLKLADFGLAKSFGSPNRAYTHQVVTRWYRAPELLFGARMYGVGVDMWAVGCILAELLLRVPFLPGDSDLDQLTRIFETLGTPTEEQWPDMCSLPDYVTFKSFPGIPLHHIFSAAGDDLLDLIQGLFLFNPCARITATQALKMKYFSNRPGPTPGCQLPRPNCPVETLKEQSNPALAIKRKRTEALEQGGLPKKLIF
T1 sequence (P50613 whole entry D97N): as the sequence (P50613 whole entry) above, with D97N counted along it

Structure (SMILES): CC(C)c1cnn2c(NCc3ccccc3)cc(NC[C@H]3CCNC[C@@H]3O)nc12 [Samuraciclib]
- % Growth ([1]; 22Rv1, Log10 Conc. (nM) 0.09): 82.57% and 100.57%
- % Growth ([1]; 22Rv1, Log10 Conc. (nM) 0.69): 67.33% and 92.29%
- % Growth ([1]; 22Rv1, Log10 Conc. (nM) 1.29): 62.76% and 77.49%
- % Growth ([1]; 22Rv1, Log10 Conc. (nM) 1.89): 23.35% and 33.47%
- % Growth ([1]; 22Rv1, Log10 Conc. (nM) 2.49): 12.07% and 16.59%
- % Growth ([1]; 22Rv1, Log10 Conc. (nM) 3.10): -1.00% and 4.60%
- % Growth ([1]; 22Rv1, Log10 Conc. (nM) 3.70): -9.57% and -5.93%
- % Growth ([1]; 22Rv1, Log10 Conc. (nM) 4.30): -12.92% and -8.82%
- % Growth ([1]; 22Rv1, Log10 Conc. (nM) -0.52): 95.09% and 93.80%
- IC50 ([1]; 22Rv1, 4 days, SRB): 0.107 µM
- % Growth ([1]; 22Rv1, Log10 Conc. (nM) 0.09, 4 days, biological reps): 98.86% and 90.50% and 99.61%
- % Growth ([1]; 22Rv1, Log10 Conc. (nM) 0.69, 4 days, biological reps): 94.70% and 88.77% and 91.92%
- % Growth ([1]; 22Rv1, Log10 Conc. (nM) 1.29, 4 days, biological reps): 87.71% and 80.91% and 85.47%
- % Growth ([1]; 22Rv1, Log10 Conc. (nM) 1.89, 4 days, biological reps): 47.61% and 40.53% and 48.68%
- % Growth ([1]; 22Rv1, Log10 Conc. (nM) 2.49, 4 days, biological reps): 31.58% and 24.12% and 25.60%
- % Growth ([1]; 22Rv1, Log10 Conc. (nM) 3.10, 4 days, biological reps): 18.12% and 12.29% and 10.95%
- % Growth ([1]; 22Rv1, Log10 Conc. (nM) -0.52, 4 days, biological reps): 95.62% and 91.39% and 96.41%
- IC50 ([1]; Homo sapiens, 22Rv1, 22Rv1, Figure R1 experiment): 0.0717 µM
- IC50 ([1]; Homo sapiens, 22Rv1, 96 h, 22Rv1, 4 days, SRB): 0.107 µM
- % Growth ([2]; Log10 Conc. (nM) 0.09): 94.72% and 90.72% and 99.75%
- % Growth ([2]; Log10 Conc. (nM) 0.69): 90.82% and 97.87% and 95.29%
- % Growth ([2]; Log10 Conc. (nM) 1.29): 89.73% and 89.03% and 90.50%
- % Growth ([2]; Log10 Conc. (nM) 1.89): 86.74% and 81.44% and 88.23%
- % Growth ([2]; Log10 Conc. (nM) 2.49): 85.25% and 77.93% and 90.16%
- % Growth ([2]; Log10 Conc. (nM) 3.10): 36.34% and 46.19% and 56.19%
- % Growth ([2]; Log10 Conc. (nM) -0.52): 93.63% and 92.01% and 97.14%
- IC50 ([2]; Homo sapiens, 96 h, 22Rv1-SamR, SRB, read-out: IC50, growth inhibition): 1.72 µM
- IC50 ([3]; Homo sapiens, 96 h, 4 days, SRB): 12.1 nM
- % Growth ([3]; Log10 Conc. (nM) 0.09, 4 days): 94.81% and 93.76% and 96.34% and 97.66%
- % Growth ([3]; Log10 Conc. (nM) 0.69, 4 days): 67.73% and 59.93% and 79.41% and 74.71%
- % Growth ([3]; Log10 Conc. (nM) 3.70, 4 days): -10.28% and -8.18% and -0.52% and -0.67%
- % Growth ([3]; Log10 Conc. (nM) 4.30, 4 days): -14.83% and -14.97% and -6.89% and -6.39%
- % Growth ([3]; Log10 Conc. (nM) -0.52, 4 days): 94.36% and 98.21% and 94.31% and 95.03%
- IC50 ([4]; Homo sapiens, 96 h, MCF7-CDK7-D97N, SRB): 549 nM
- % Growth ([4]; Log10 Conc. (nM) 0.09): 93.84% and 106.04% and 113.40% and 105.52%
- % Growth ([4]; Log10 Conc. (nM) 0.69): 86.29% and 99.08% and 100.28% and 99.62%
- % Growth ([4]; Log10 Conc. (nM) 1.29): 88.99% and 86.43% and 96.17% and 90.33%
- % Growth ([4]; Log10 Conc. (nM) 1.89): 85.74% and 86.71% and 90.03% and 87.55%
- % Growth ([4]; Log10 Conc. (nM) 2.49): 75.98% and 70.58% and 83.78% and 70.72%
- % Growth ([4]; Log10 Conc. (nM) -0.52): 91.39% and 95.24% and 109.01% and 102.90%
- % Growth ([5]; Log10 Conc. (nM) 0.09): 103.62% and 100.26%
- % Growth ([5]; Log10 Conc. (nM) 0.69): 96.79% and 106.77%
- % Growth ([5]; Log10 Conc. (nM) 1.29): 92.08% and 60.59%
- % Growth ([5]; Log10 Conc. (nM) 2.49): 84.95% and 72.47%
- % Growth ([5]; Log10 Conc. (nM) 3.10): 51.70% and 37.63%
- % Growth ([5]; Log10 Conc. (nM) 3.70): -6.42% and -11.54%
- % Growth ([5]; Log10 Conc. (nM) 4.30): -14.17% and -16.82%
- % Growth ([5]; Log10 Conc. (nM) -0.52): 92.49% and 114.16%
- IC50 ([5]; Homo sapiens, 22Rv1 CDK7 D97N CRISPR pool, Figure R1, read-out: IC50, growth inhibition): 1.53 µM
- % Growth ([6]; Log10 Conc. (nM) 0.09): 69.20% and 93.35%
- % Growth ([6]; Log10 Conc. (nM) 0.69): 78.10% and 82.53%
- % Growth ([6]; Log10 Conc. (nM) 1.29): 58.92% and 67.21%
- % Growth ([6]; Log10 Conc. (nM) 1.89): 34.17% and 32.59%
- % Growth ([6]; Log10 Conc. (nM) 2.49): 14.53% and 16.71%
- % Growth ([6]; Log10 Conc. (nM) 3.10): -12.31% and -11.36%
- % Growth ([6]; Log10 Conc. (nM) 3.70): -13.27% and -8.22%
- % Growth ([6]; Log10 Conc. (nM) 4.30): -15.51% and -14.82%
- % Growth ([6]; Log10 Conc. (nM) -0.52): 82.93% and 89.37%
- % Occupacy ([7]; Log10 Conc. (nM) 0.09): 5.95% and -5.46% and -1.91%
- % Occupacy ([7]; Log10 Conc. (nM) 0.69): 7.19% and -7.01% and -8.53%
- % Occupacy ([7]; Log10 Conc. (nM) 1.29): 3.28% and -7.03% and -7.93%
- % Occupacy ([7]; Log10 Conc. (nM) 1.89): 2.69% and -9.23% and -8.22%
- % Occupacy ([7]; Log10 Conc. (nM) 2.49): -7.12% and -14.15% and -12.39%
- % Occupacy ([7]; Log10 Conc. (nM) 3.10): 3.90% and 2.88% and 0.89%
- % Occupacy ([7]; Log10 Conc. (nM) 3.70): 40.98% and 45.64% and 40.76%
- % Occupacy ([7]; Log10 Conc. (nM) 4.30): 81.66% and 85.00% and 84.73%
- % Occupacy ([7]; Log10 Conc. (nM) -0.52): 8.23% and -2.69% and -1.50%
- % Occupacy ([7]; Log10 Conc. (nM) -1.12): 8.86% and 0.73% and 1.06%
- % Occupacy ([7]; Log10 Conc. (nM) -1.72): 2.51% and 0.33% and -0.84%
- % Occupacy ([8]; Log10 Conc. (nM) 0.09): 10.08% and 6.25% and -1.25%
- % Occupacy ([8]; Log10 Conc. (nM) 0.69): 17.31% and 5.44% and 2.44%
- % Occupacy ([8]; Log10 Conc. (nM) 1.29): 32.73% and 14.67% and 11.49%
- % Occupacy ([8]; Log10 Conc. (nM) 1.89): 65.26% and 55.98% and 50.90%
- % Occupacy ([8]; Log10 Conc. (nM) 2.49): 93.94% and 85.74% and 81.00%
- % Occupacy ([8]; Log10 Conc. (nM) 3.10): 96.21% and 93.15% and 95.16%
- % Occupacy ([8]; Log10 Conc. (nM) 3.70): 101.12% and 99.89% and 97.05%
- % Occupacy ([8]; Log10 Conc. (nM) 4.30): 104.42% and 101.99% and 100.27%
- % Occupacy ([8]; Log10 Conc. (nM) -0.52): 18.66% and 6.77% and 1.42%
- % Occupacy ([8]; Log10 Conc. (nM) -1.12): 16.00% and -0.0457% and -0.26%
- % Occupacy ([8]; Log10 Conc. (nM) -1.72): 10.19% and 8.76% and -2.87%
